This series can be described thus: Pharmacokinetic study of β-boswellic acid in rabbits with and without Piper longum extract (serum, HPLC-UV). Format: in vivo. The following applies: for AUC(0-t) / AUC(0-inf) / Cmax / Tmax / Vd/F / k el: male, rabbit, serum, po; for AUC(0-t): oral capsule; for Vd/F: read-out: Apparent volume of distribution (Vd/F); for k el: read-out: Ke (converted).
The mark [1] stands for this setting: 20 mg, oral, Control: 20 mg of BA alone.
The mark [2] stands for this setting: Test I: 20 mg of BA + 2.5 mg of PL.
[3] abbreviates: Test II: 20 mg of BA + 10 mg of PL.

The values that follow come from publication PMC7770183, “Enhanced Bioavailability of Boswellic Acid by Piper longum: A Computational and Pharmacokinetic Study” (Frontiers in Pharmacology, 2020).

Where two headings read alike, the source gives them in different places.

Take `C[C@H]1[C@H](C)CC[C@]2(C)CC[C@]3(C)C(=CC[C@@H]4[C@@]5(C)CC[C@@H](O)[C@](C)(C(=O)O)[C@@H]5CC[C@]43C)[C@H]12` [β-boswellic acid, 3α-hydroxyurs-12-en-24-oic acid]: the AUC(0-t) by setting is: (20 mg, Control: 20 mg of β-boswellic acid (BA) alone) 766 ± 22.8 ng·h/mL; (Test I: 20 mg of BA + 2.5 mg of adjuvant (PL)) 1890 ± 109 ng·h/mL; (Test II: 20 mg of BA + 10 mg of adjuvant (PL)) 2210 ± 115 ng·h/mL. Besides, the AUC(0-inf) reads like this: under setting [1], 772 ± 22.1 ng·h/mL; under setting [2], 2660 ± 102 ng·h/mL; under setting [3], 2850 ± 251 ng·h/mL. The Cmax by setting is: under setting [1], 260 ± 21.3 ng/mL; under setting [2], 321.4 ± 2.7 ng/mL; under setting [3], 359 ± 12 ng/mL. The Tmax is 2 ± 0.18 h under setting [1], 2 ± 0.22 h under setting [2] and 3 ± 0.26 h under setting [3]. Further, the Vd/F reads like this: under setting [1], 96 ± 14 L; under setting [2], 43.2 ± 7 L; under setting [3], 67.5 ± 11 L. In addition, the k el is 0.000131 s⁻¹ under setting [1], 5.24e-05 s⁻¹ under setting [2] and 3.07e-05 s⁻¹ under setting [3]. Further, the Ka was determined as 0.6168 ± 0.16 h⁻¹ (oral, Control: 20 mg of BA alone); 0.740 ± 0.22 h⁻¹ (oral, Test I: 20 mg of BA + 2.5 mg of PL); 0.6112 ± 0.17 h⁻¹ (oral, Test II: 20 mg of BA + 10 mg of PL). The “time of complete elimination from serum” value (oral, β-boswellic acid alone) came to 9 h.

Usually AUC(0-t) stands for exposure summed from dosing to a finite time, without extrapolation to infinity. For orientation: AUC(0-inf) means total exposure, with the tail of the curve extrapolated. The term Cmax denotes the maximum level reached in the sampled fluid or tissue. One may read the Tmax as the time at which the peak concentration occurs.
